Data: the NIST ThermoML archive (doi:10.1016/j.jct.2015.12.017)

Assay: molar heat capacity at constant pressure
Details: 101.33 kPa, Crystal 4, Vacuum adiabatic calorimetry

O=P([O-])([O-])[O-].[Co+2].[Cs+] [cesium cobalt(II) phosphate]
Details	molar heat capacity at constant pressure [J/K/mol]
5 K	1.355
6 K	2.328
6.05 K	2.228
6.49 K	2.594
6.93 K	2.96
7 K	2.893
7.36 K	3.11
7.78 K	3.317
8 K	3.492
8.19 K	3.633
8.62 K	4.041
9 K	4.091
9.08 K	4.232
9.58 K	4.457
10 K	4.689
10.1 K	4.822
10.63 K	5.13
11.16 K	5.471
11.67 K	5.737
12.16 K	5.97
13 K	6.635
14.27 K	7.807
15 K	8.29
15.59 K	8.921
16.94 K	10.37
18.33 K	11.79
19.77 K	13.05
20 K	13.44
20.92 K	14.28
22.76 K	16.17
24.48 K	17.93
25 K	18.57
26.27 K	19.85
28.12 K	21.62
30 K	23.49
30.03 K	23.55
32 K	25.54
34.02 K	27.66
35 K	28.29
36.12 K	29.27
37.97 K	30.99
40 K	33.01
40.47 K	33.46
42.73 K	35.36
45 K	37.42
45.02 K	37.41
47.34 K	39.6
49.71 K	41.16
50 K	41.41
52.12 K	42.9
54.56 K	44.8
57.05 K	46.5
59.55 K	48
60 K	48.39
62.07 K	49.7
64.59 K	51.3
67.13 K	53
69.7 K	54.4
70 K	54.75
72.02 K	56.1
74.09 K	57.4
76.18 K	58.59
78.27 K	59.6
80 K	60.56
80.36 K	60.71
80.84 K	60.8
82.45 K	61.91
82.83 K	62.06
84.54 K	62.83
85.25 K	63.18
86.65 K	64.17
87.47 K	64.52
89.36 K	65.58
89.69 K	65.7
90 K	65.75
91.92 K	66.67
94.14 K	67.78
96.37 K	69.09
98.6 K	70.17
100 K	70.96
100.83 K	71.3
103.07 K	72.37
105.3 K	73.45
107.54 K	74.66
109.78 K	75.44
110 K	75.59
111.8 K	76.31
114.54 K	77.64
116.74 K	78.51
118.98 K	79.46
120 K	79.79
121.23 K	80.28
123.47 K	81.37
125.71 K	82.23
127.95 K	83.09
130 K	83.89
130.19 K	83.89
132.43 K	84.89
134.67 K	85.72
136.91 K	86.55
139.14 K	87.39
140 K	87.97
141.38 K	88.3
143.49 K	89.3
145.85 K	90.21
148.08 K	91.21
150 K	91.96
150.3 K	91.79
151.78 K	92.54
152.91 K	93.04
153.96 K	93.62
155.41 K	94.12
157.59 K	94.87
159.03 K	95.37
160 K	95.78
161.93 K	96.28
163.35 K	96.95
164.07 K	97.28
165.61 K	97.86
166.94 K	98.53
167.88 K	98.78
170 K	99.36
170.03 K	99.61
172.23 K	100.19
174.44 K	100.85
176.64 K	101.6
178.83 K	102.35
180 K	102.68
181.02 K	103.1
183.21 K	103.93
185.4 K	104.51
187.59 K	105.09
189.78 K	105.59
190 K	105.76
191.97 K	106.18
194.89 K	106.84
196.33 K	107.26
198.51 K	107.92
200 K	108.59
200.68 K	108.67
202.82 K	109.34
204.99 K	109.92
207.16 K	110.5
209.32 K	111.16
210 K	111.25
211.49 K	111.66
213.66 K	112.25
215.82 K	112.83
217.98 K	113.49
220 K	113.83
220.14 K	114.07
222.3 K	114.66
224.46 K	115.07
226.62 K	115.82
228.77 K	116.15
230 K	116.49
230.93 K	116.65
233.08 K	117.32
235.23 K	117.73
237.35 K	118.4
239.5 K	118.98
240 K	119.23
241.65 K	119.56
243.79 K	120.23
245.94 K	120.81
248.09 K	121.39
250 K	121.97
250.23 K	121.97
252.37 K	122.72
254.5 K	123.3
256.64 K	123.8
258.77 K	124.3
260 K	124.72
260.91 K	124.88
263.04 K	125.38
265.17 K	126.05
267.3 K	126.71
269.42 K	127.29
270 K	127.29
271.51 K	127.71
273.15 K	128.04
273.63 K	128.13
276.36 K	128.79
278.4 K	129.21
280 K	129.62
280.51 K	129.79
282.62 K	130.29
284.72 K	130.62
286.82 K	131.12
288.92 K	131.62
290 K	131.78
291.02 K	132.2
293.09 K	132.62
295.18 K	133.03
297.25 K	133.53
298.15 K	133.7
299.32 K	134.03
300 K	134.11
301 K	134.69
301.38 K	134.69
302.98 K	135.36
303.43 K	135.36
